Assay results reported in paper doi:10.1101/2025.02.18.638599v1 (biorxiv, 2025).
pKd: −log10 of the molar value.

Experiments:
[1] = tested on: E. coli BW25113; assay: microbe, parasite or virus in culture; conditions: Escherichia coli, BW25113, 24 h, read-out: MIC, E. coli BW25113
[2] = tested on: E. coli JW5503; assay: microbe, parasite or virus in culture; conditions: Escherichia coli, JW5503, 24 h, read-out: MIC, E. coli JW5503
[3] = target: T1, AcrB (Escherichia coli, UniProt P31224); assay: label-free microscale thermophoresis; type: binding
T1 sequence (P31224 1-1049): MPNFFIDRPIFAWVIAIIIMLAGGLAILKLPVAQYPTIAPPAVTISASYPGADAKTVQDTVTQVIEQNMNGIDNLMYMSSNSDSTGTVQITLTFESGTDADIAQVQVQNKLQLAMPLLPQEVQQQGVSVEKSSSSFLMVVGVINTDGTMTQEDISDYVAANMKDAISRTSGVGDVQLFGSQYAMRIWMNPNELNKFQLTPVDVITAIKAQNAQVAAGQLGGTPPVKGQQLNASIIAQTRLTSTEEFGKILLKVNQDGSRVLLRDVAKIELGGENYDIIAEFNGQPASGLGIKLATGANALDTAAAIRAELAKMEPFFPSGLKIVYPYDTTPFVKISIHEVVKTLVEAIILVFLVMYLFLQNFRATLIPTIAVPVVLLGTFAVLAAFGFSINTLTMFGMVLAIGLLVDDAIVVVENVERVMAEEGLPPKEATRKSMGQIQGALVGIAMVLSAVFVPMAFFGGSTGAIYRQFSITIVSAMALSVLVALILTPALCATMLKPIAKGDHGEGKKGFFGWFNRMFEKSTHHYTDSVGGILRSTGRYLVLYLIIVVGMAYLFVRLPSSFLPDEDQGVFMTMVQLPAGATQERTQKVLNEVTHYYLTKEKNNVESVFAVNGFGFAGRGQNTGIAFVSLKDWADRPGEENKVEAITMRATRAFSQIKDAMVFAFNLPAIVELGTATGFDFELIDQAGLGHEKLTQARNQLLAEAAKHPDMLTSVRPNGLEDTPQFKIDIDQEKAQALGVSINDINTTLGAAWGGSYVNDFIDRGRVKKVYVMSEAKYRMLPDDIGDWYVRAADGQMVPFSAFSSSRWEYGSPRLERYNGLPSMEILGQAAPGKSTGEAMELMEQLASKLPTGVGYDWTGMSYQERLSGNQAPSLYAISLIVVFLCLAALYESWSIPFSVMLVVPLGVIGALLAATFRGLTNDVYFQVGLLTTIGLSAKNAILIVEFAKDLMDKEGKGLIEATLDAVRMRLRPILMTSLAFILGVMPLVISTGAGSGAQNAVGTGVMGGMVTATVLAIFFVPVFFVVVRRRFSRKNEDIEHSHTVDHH

[4] = target: T2, TolC (Escherichia coli, UniProt P02930); assay: label-free microscale thermophoresis; type: binding
T2 sequence (P02930 23-493): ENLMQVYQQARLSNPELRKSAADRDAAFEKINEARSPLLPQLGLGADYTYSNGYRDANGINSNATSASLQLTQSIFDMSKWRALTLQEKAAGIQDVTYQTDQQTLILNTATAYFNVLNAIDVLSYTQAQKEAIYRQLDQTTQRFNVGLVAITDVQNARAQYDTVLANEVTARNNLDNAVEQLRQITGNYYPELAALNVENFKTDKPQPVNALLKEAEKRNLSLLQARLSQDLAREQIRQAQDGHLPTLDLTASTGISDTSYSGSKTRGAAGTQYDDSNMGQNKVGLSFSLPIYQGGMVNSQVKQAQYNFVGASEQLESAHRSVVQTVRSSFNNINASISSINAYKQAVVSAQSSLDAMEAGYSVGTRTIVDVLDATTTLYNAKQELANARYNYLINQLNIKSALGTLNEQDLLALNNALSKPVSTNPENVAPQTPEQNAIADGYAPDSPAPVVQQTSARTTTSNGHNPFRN

[5] = tested on: E. coli BW25113; set-up: species or system Escherichia coli; conditions: compound alone; 24 h; inhibitor

Structure (SMILES)	MIC [1] [µM]	MIC [2] [µM]	pKd [3]	pKd [4]	MIC, E. coli BW25113 [5] [µM]
CNC(=O)c1ccccc1Nc1nc(Nc2ccc3c(c2OC)CCC[C@H](N2CCN(CCO)CC2)C3)ncc1Cl [CEP-37440]	> 125	> 75	3.70	3.55	–
COc1c(N)ccc2c1CCCC(N1CCN(CCO)CC1)C2 (centres unmarked) [LP-115]	–	–	–	–	>125
